Assay results taken from patent US8247603B2, “Deuterated catecholamine derivatives and medicaments comprising said compounds” (Birds Pharma GmbH Berolina Innovative, priority 2006, dated 2012).

How the values were obtained:
[1] = test system: Parkinson's disease exhibiting severe on-off phenomena; conditions: continuous intravenous infusion, patients with Parkinson's disease with severe on-off phenomena; cited from earlier work
[2] = cited from earlier work
[3] = given orally or intraperitoneally, on a molar basis; cited from earlier work
[4] = test system: dopamine output in the striatum; test: Striatal dopamine output measured by microdialysis; type: in vivo, Male Wistar rats; conditions: for Increase of dopamine in the striatum compared to L-DOPA (comparison of AUC0-t): 50 mg/kg i.p., relative to L-DOPA; for Increase of dopamine in the striatum compared to L-DOPA (comparison of AUC0-t) / Baseline corrected dopamine output in the striatum, AUC0-t: Male Wistar rats; for Baseline corrected dopamine output in the striatum, AUC0-t: 50 mg/kg intraperitoneal, 10 mg/kg Carbidopa i.p. 30 min before, microdialysis in dorsolateral striatum
Experimental: The striatal output of dopamine was measured in Male Wistar rats following intraperitoneal administration of 50 mg/kg L-2-Amino-3-(3,4-dihydroxyphenyl) propionic acid (L-DOPA), L-2-Amino-2,3,3-trideutero-3-(3,4-dihydroxyphenyl) propionic acid (WO-A 2004/056724, Example 6) and L-2-Amino-2,3-dideutero-3-(3,4-dihydroxyphenyl) propionic acid (Example 6), respectively. Male wistar rats (BK Universal, Sollentuna, Sweden) weighing about 300 g at the time of experiment were anaesthetized with a cocktail containing fentanyl citrate (0.39 mg/kg) and fluanisone (12.5 mg/kg, Hypnorm®, Janssen-Cilag) and midazolam (6.25 mg/kg, Dormicum®, Roche) diluted in distilled water (1:1:2; 5 ml/kg i.p.) and mounted in a stereotaxic frame. Dialysis probes were implanted in the dorsolateral striatum (AP: +0.6: ML+3.0: DV −6.2 relative to bregma and the dural surface according to the atlas of Paxinos and Watson (1998)). Dialysis occurs through a semipermeable membrane (Filtral AN69, Hospal Industrie, France) with an active surface length of 3.5 mm. Dialysis experiments were conducted approximately 48 h after surgery in freely moving rats. The rats received 30 min before administration of test items 10 mg/kg Carbidopa, (i.p.). The dialysis probe was perfused with a physiological perfusion solution (Apoteksbolaget, Sweden) at a rate of […] set by a microinfusion pump (Harvard Apparatus, Holliston, Mass.). Dialysate was collected over 15 min intervals and automatically injected into a high performance liquid chromatography (HPLC) system. On-line quantification of dopamine in the dialysate was accomplished by electro-chemical detection (ESA, Chelmsford, Mass.). The location of microdialysis probes was verified in slices of formalin-fixed tissue stained with neutral red. The baseline corrected concentrations (fmol/min) were plotted over the time.

[5] = test system: striatal output of norepinephrine; test: Striatal output of norepinephrine; type: in vivo; conditions: compared to L-DOPA
[6] = test system: dopamine in the striatum; conditions: male Wistar rats; known from WO-A 2004/056724; cited from earlier work
[7] = Therapeutic equivalence during continuous intravenous infusion; type: in vivo
From the text: The optimal infusion rate for L-DOPA methyl ester was 2.7 times that required for L-DOPA (Stocchi et al. 1992, Movement Disorders, 7: 249-256).

Compound	Increase of dopamine in the striatum compared to L-DOPA (comparison of AUC0-t) [4]	Baseline corrected dopamine output in the striatum, AUC0-t [4] [fmol/min*min]	Striatal output / formation of norepinephrine [5]	other results
COC(=O)[C@@H](N)Cc1ccc(O)c(O)c1 [L-DOPA methyl ester]				Optimal infusion rate relative to that required for L-DOPA [1]: 2.7 times; Solubility [2]: highly soluble; Equivalence to L-DOPA in animal experiments [3]: equivalent on a molar basis to L-DOPA
[2H]C([2H])(c1ccc(O)c(O)c1)[C@]([2H])(N)C(=O)O [L-2-Amino-2,3,3-trideutero-3-(3,4-dihydroxyphenyl) propionic acid]	about twice as high	533	reduces the striatal output of norepinephrine	Increase of dopamine in the striatum compared to non-deuterated L-DOPA [6]: significantly more
[2H][C@@H](c1ccc(O)c(O)c1)[C@]([2H])(N)C(=O)O [Example 6, L-2-Amino-2,3(S)-dideutero-3-(3,4-dihydroxyphenyl) propionic acid]	threefold higher	685	does not block the formation of norepinephrine	Increase of dopamine in the striatum compared to L-2-Amino-2,3,3-trideutero-3-(3,4-dihydroxyphenyl) propionic acid ([4]; Example 15 and Table 1): significantly more
N[C@@H](Cc1ccc(O)c(O)c1)C(=O)O [L-2-Amino-3-(3,4-dihydroxyphenyl) propionic acid]		228		
[2H][C@@H](c1ccc(O)c(O)c1)[C@]([2H])(N)C(=O)OC [Example 7, L-2-Amino-2,3(S)-dideutero-3-(3,4-dihydroxyphenyl)methyl propionate]				Therapeutic equivalence to L-2-Amino-2,3-dideutero-3-(3,4-dihydroxyphenyl) propionic acid [7]: therapeutically equivalent
